The text below walks through data of PMC4311240, “Rationally Designed Peptidomimetic Modulators of Aβ Toxicity in Alzheimer's Disease” (Scientific Reports, 2015).

The structures appear in SMILES notation.

The half-life is the time needed for the level to fall by half in the phase considered. High values mean slow loss, low ones fast loss. One may read the inhibition as the share of the control response that was lost under treatment.

A short description of one series: Serum stability assay. It counts as in vitro ADME. To be noted: human blood serum (centrifuged to remove lipid), 37°C, 24 h, RP-HPLC at 254 nm. How it is done: The impact of N-terminal modification (P2 and P3) and Sr (N-methylglycine) substitution (P4 and P5) in P1 were investigated for their proteolytic stability towards blood plasma proteases. The assay involved the incubation of peptides (50 μM) with blood serum at 37°C for a period of 24 h and assessing the amount of intact peptides at different time points (0, 3, 6, 12 and 24 h) using RP-HPLC. […] Remarkably, P4 and P5 were very stable towards blood plasma proteases in comparison to the other peptides (P1, P2 and P3). […] Proteolytic enzymes generally recognize the specific amide bond between the natural amino acids and cleave them. […] On the other hand, P4 and P5 with an unnatural amino acid (Sr: N-methylglycine) in alternate positions were not recognized by the blood plasma proteases, resulting in their high blood plasma protease stability.
Figure 6 Serum stability of inhibitors. Inhibitors (50 μM) (P1-P5)were incubated in human blood serum (HBS) and were analyzed at different time points over a duration of 24 h to determine the percentage of intact inhibitor. […] Each experiment was repeated three times (n = 3). Error bars represent the standard deviation (SD) of the […] measurement.
Human blood serum (HBS) was used to determine serum stability of the inhibitors. The HBS was centrifuged to remove the lipid component, and the supernatant was incubated at 37°C. 50 Μm of each inhibitor (P1, P2, P3, P4 and P5) was incubated in HBS and then 40 μL triplicate aliquots were removed at 0, 1, 3, 6, 10, 16, and 24 h. Each serum sample was quenched with 40 μL of 6 M urea and incubated at 4°C for 10 min. Then, each serum sample was quenched with 40 μL of trichloroacetic acid (20%) and incubated for another 10 min at 4°C to precipitate the serum proteins. The samples were centrifuged for 10 min, and […] of the supernatant was analyzed on RP-HPLC using a linear gradient of solvent B (0.3 mL/min flow rate). The control samples containing equivalent amounts of inhibitors in PBS buffer were subjected to the same treatment procedure. The percentage recovery of inhibitors was detected by integration at 254 nm[45].

For a further series, the target named is T1, Aβ42 (Homo sapiens, UniProt P05067).
T1 construct: Aβ42 peptide (0.25 mg) (Calbiochem, Merck) was dissolved in hexafluoro-2-propanol; purchased Calbiochem, Merck
T1 sequence (P05067 672-713 limits assumed): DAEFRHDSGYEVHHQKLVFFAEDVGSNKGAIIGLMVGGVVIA
Briefly: ThT fluorescence inhibition assay of Aβ42 fibrillization. It counts as biochemical. Conditions: Aβ42 20 μM, Aβ42:inhibitor 1:2 (40 μM), inhibitor added at 0 h, four days at 37°C, 10 mM PBS pH 7.4, n = 3; read-out: inhibition efficiency (reduction in the fluorescence intensity of ThT). How it is done: (§1) ThT assay has been widely used to monitor the transformation of Aβ42 monomers to fibrillar aggregates. We employed ThT assay to evaluate the ability of our peptidomimetic candidates to either prevent fibril assembly (inhibition) or to break down preformed fibrils of Aβ42 (dissolution). For the inhibition assay all the peptidomimetics (P2, P3, P4 and P5) along with control peptide P1 were added at 0 h of the experiment, whereas for the aggregates reversal (dissolution) assay they were added to Aβ42 fibrillar aggregates grown for 2 days. Once they had been incubated together, Aβ42/inhibitors were analyzed using ThT by measuring the fluorescence changes. First, we performed concentration-dependent experiments where different ratios of P1, P2, P3, P4 and P5 were incubated with fixed concentrations of Aβ42 (20 μM) and its aggregates to study their effect on both inhibition and reversal assay, respectively. Experiments were performed at stoichiometric ratios (Aβ42/inhibitor) of 1:0.2, 1:1, and 1:2 with the fixed concentration of Aβ42 of 20 μM. […] However, the efficiencies of P4 and P5 were only marginally better in inhibition assay compared to reversal assay with a difference of about 15%.
(§2) Fluorescence spectral measurements were carried out using Perkin Elmer Model LS 55 fluorescence spectrophotometer. […] A ThT concentration of 5–10 µM was used for amyloid fibrillization and dissolution assay based on the Aβ42 fibrillar concentration.
(§3) Prior to the experiment, P1, P2, P3, P4 and P5 were dissolved in HFIP and were evaporated under a stream of dry nitrogen. The dried samples were re-suspended in 10 mM PBS buffer at pH 7.4. An aliquot of Aβ42 peptide was then added to the solution with or without one of the inhibitor P1, P2, P3, P4 and P5. The mixtures were vortexed for approximately 30 s and then incubated at 37°C for 2–3 days without shaking. The final concentration of Aβ42 in the mixture was 20 μΜ. For a dissolution experiment, Aβ42 was incubated alone for 2 days to allow fibrils to form. An aliquot of the formed fibrils in 10 mM PBS buffer was then added to the inhibitor peptidomimetics. The amount of fibrils remaining intact was assayed using that fluorescence, CD measurements and transmission electron microscopy as described below.

Another series concerns trypsin. Briefly: Protease stability assay, trypsin. It is filed as in vitro ADME. Conditions: 100 mM NH4HCO3 buffer pH 8, 50 μM, 37°C, 24 h, RP-HPLC. As to the method: (§4) Enzymes trypsin and pepsin are well-known to cleave the C-terminal of lysine and amide bond involving aromatic amino acids, respectively. Peptides were incubated with both the enzymes at 37°C for 24 h, and the amount of the residual intact peptide was monitored in each case at different time points (0, 3, 6, 12 and 24 h) using RP-HPLC. […] Overall, the stability assays with blood plasma and proteolytic enzymes led to similar conclusions and confirmed the stability, order P5>P4≫P3≈P2>P1.
(§5) Preliminary stability assays were performed using the enzymes pepsin and trypsin. For all assays, peptides were incubated with the enzyme at 37°C for 24 h. All digestion assay data were analyzed by RP-HPLC. Trypsin and pepsin stocks were prepared in 100 mM ammonium bicarbonate (NH4HCO3) buffer (pH 8) and 100 mM formic acid buffer (pH 2), respectively. All the peptides/peptidomimetics (P1, P2, P3, P4 and P5) were incubated with trypsin and pepsin enzymes in 100 mM NH4HCO3 buffer (pH 8) and formic acid buffer (pH 2), respectively, at 37°C. The trypsin reactions were halted with 0.05% formic acid, and the pepsin reactions were halted with 100 mM NH4HCO3. Then the samples were analyzed by RP-HPLC using a linear gradient of solvent B (0.3 mL/min flow rate); similar data points were collected at various time points between 0 and 24 h (1 h, 3 h, 6 h, 12 h and 24 h) during incubation and analyzed in triplicates. The percentages of recovered peptide/peptidomimetics were detected by integration at 254 nm[46].
(§6) Figure S6. Stability towards protease enzymes pepsin and trypsin. P1, P2, P3, P4 and P5 ([…]) were incubated in with enzymes pepsin a and trypsin b in 100 mM formic acid buffer (pH 2) and 100 mM NH4HCO3 buffer (pH 8) respectively. Percentage of intact peptide in each case was monitored at different time points for a duration of 24 h. P1, P2 and P3 degraded with time, […]
(§7) (1 picture or pasted object on this page, not shown here)

For series [1], the target named is T2, Aβ42 fibrillar aggregates (Homo sapiens, UniProt P05067).
T2 construct: Aβ42 peptide (0.25 mg) (Calbiochem, Merck) was dissolved in hexafluoro-2-propanol; purchased Calbiochem, Merck
T2 sequence (P05067 672-713 limits assumed): as above
Briefly: ThT fluorescence reversal (dissolution) assay of preformed Aβ42 fibrillar aggregates. It is filed as biochemical. Conditions: Aβ42 fibrillar aggregates grown for 2 days, 20 μM, 1:2 stoichiometry, day 6, 37°C, n = 3. As to the method:
as §1
Aβ42 peptide (0.25 mg) (Calbiochem, Merck) was dissolved in hexafluoro-2-propanol (HFIP, 0.2 mL) and incubated at room temperature for 1 h. HFIP was then removed by the flow of nitrogen and further dried under vacuum. HFIP-treated Aβ42 was then dissolved in 10 mM PBS buffer to a concentration of 200 μM at pH 7.4. The solution was incubated at 37°C for 48 h with constant shaking for fibril formation. The formation of Aβ42 fibrillar aggregates was confirmed by ThT fluorescence, CD measurements and electron microscopy. For oligomers, HFIP-treated Aβ42 dissolved in 10 mM PBS buffer and incubated at 4°C for 24 h[44].
as §2, §3

The subject of the next series is pepsin. The series can be described thus: Protease stability assay, pepsin. It counts as in vitro ADME. Conditions: 100 mM formic acid buffer pH 2, 50 μM, 37°C, 24 h, RP-HPLC. How it is done: as §4, §5, §6, §7

Turning to `CC(C)C[C@H](NC(=O)[C@@H](N)CCCCN)C(=O)N[C@H](C(=O)N[C@@H](Cc1ccccc1)C(=O)N[C@@H](Cc1ccccc1)C(N)=O)C(C)C` [P1, reference compound], the half-life at 50 μM in the series “Serum stability assay” (n = 3) was ~3 h. For the same compound, the metabolised at 24 h, 50 μM in “Serum stability assay” (n = 3, read-out: peptide degraded at 24 h in serum) turned out to be 80%. Further, on Aβ42, the inhibition at 40 µM worked out at 20%. The “stability towards trypsin” value in the series with trypsin is recorded as “less stable”. Also, in series [1], the “dissolution efficiency, fibril reversal assay (ThT)” value was found to be 20%. Moreover, the “stability towards pepsin” value in the series on pepsin was “less stable”.
